{
  "source": "patent US12263199B2",
  "about": "“Use of Sida rhombifolia” (priority 2019, dated 2025)",
  "test_system": "5-alpha reductase (5AR)",
  "assay": "Analysis of the ability of inhibition of 5AR activity (β-NADPH absorbance)",
  "assay_type": "biochemical, Sprague Dawley rats",
  "details": "finasteride 100 uM, rat prostate enzyme source, 7.5 mM testosterone, 30 minutes",
  "procedure": "In order to prepare the 5AR enzyme source, first, 15-week-old Sprague Dawley rats (obtained from Coretech) were kept under CO2 inhalation anesthesia, and then the prostate tissue was excised. After washing 200 mg of the excised tissue twice with PBS at pH 7.4, 10 ml of lysis buffer {20 mM sodium phosphate containing 0.32 M sucrose and 1 mM ethylenediaminetetraacetic acid (EDTA) at pH 6.5} was added, followed by homogenizing the mixture by a glass homogenizer. The homogenate was centrifuged at 4° C. and 5,000 rpm for 15 minutes to take the supernatant and quantify a protein using Brad Ford reagent, and then the protein was used as a 5AR enzyme source. The remaining homogenate was stored at −70° C.\nThe ability to inhibit 5AR activity was measured using the method of Nahata and Dixit {Andrologia, 46(6):592-601, 2014}. In a 96-well plate, the enzyme source (0.8 mg/ml protein) prepared as in 2-2, a solution obtained by dissolving the solvent extract prepared in 2-1. in methanol (50 ug/ml), 7.5 mM testosterone, and 300 uM β-NADPH were reacted at 37° C. Thereafter, absorbance according to the change in the amount of β-NADPH at 350 nm was measured every 5 minutes for a total of 30 minutes. The measurement value was calculated using a standard graph of β-NADPH, and the unit was expressed as pg/ml. […]",
  "data": [
    {"compound": "CC(C)(C)NC(=O)[C@H]1CC[C@H]2[C@@H]3CC[C@H]4NC(=O)C=C[C@]4(C)[C@H]3CC[C@]12C", "note": "[finasteride]", "values": [
      {"measurement": "concentration of β-NADPH in the reaction solution at the end of the reaction (5AR activity inhibition)", "result": "concentration of β-NADPH increased compared to that in the negative control group"}
    ]}
  ]
}
